The results in this text go back to US11759462B2, “Spirocyclic compounds as tryptophan hydroxylase inhibitors” (priority 2013, dated 2023).

The subject of assay [1] is jejunal mucosal 5-HT in mice (C57 BL6). Put plainly: Intestinal 5-HT depletion assay (Example B, single 150 mg/kg oral dose). The conditions noted are these: one day after oral administration of a single 150 mg/kg dose, P-value class (ANOVA). The class given is in vivo, mouse. The procedure:
The efficacy of the TPH1 inhibitors of the invention was assessed for the ability to decrease intestinal serotonin concentration in mice. Mice (C57 BL6) were administered a single 150 mg/kg dose of test article by oral gavage. Each animal was euthanized by exsanguination under isoflurane anesthesia. Jejunal intestinal mucosa was isolated and homogenized in 300 μL of a buffer containing 0.3M trichloroacetic acid, 0.1M sodium acetate, 10 mM EDTA, 20 mM sodium bisulfate and 50 mM ascorbic acid. Following centrifugation the 5-HT levels in the supernatants were measured by HPLC. The remaining mucosal pellet was solubilized overnight at 37° C. in a 0.1% sodium dodecyl sulfate buffer in 0.1N NaOH followed by determination of protein concentrations using a BCA protein assay (Pierce, Rockford, Ill. 5-HT levels were normalized to protein and data were expressed as mean percent reduction of mucosal 5-HT levels relative to vehicle control SEM (percent 5-HT reduction). All animal studies were carried out with protocols approved by the Institutional Animal Care and Use Committee.
P-values, indicating statistical significance of the data (ANOVA) are provided in the table: * refers to P<0.05, ** refers to P<0.01, *** refers to P<0.005, and refers to P<0.0005.

The target in assay [2] is T1, Recombinant human TPH1 (MBP tagged) (Homo sapiens, UniProt P17752).
T1 construct: cloning full length human TPH1 cDNA in to a bacterial pMAL-c5E expression vector; made in house; host or cells: E. coli BL21 (DE3)
T1 sequence (P17752 1-444): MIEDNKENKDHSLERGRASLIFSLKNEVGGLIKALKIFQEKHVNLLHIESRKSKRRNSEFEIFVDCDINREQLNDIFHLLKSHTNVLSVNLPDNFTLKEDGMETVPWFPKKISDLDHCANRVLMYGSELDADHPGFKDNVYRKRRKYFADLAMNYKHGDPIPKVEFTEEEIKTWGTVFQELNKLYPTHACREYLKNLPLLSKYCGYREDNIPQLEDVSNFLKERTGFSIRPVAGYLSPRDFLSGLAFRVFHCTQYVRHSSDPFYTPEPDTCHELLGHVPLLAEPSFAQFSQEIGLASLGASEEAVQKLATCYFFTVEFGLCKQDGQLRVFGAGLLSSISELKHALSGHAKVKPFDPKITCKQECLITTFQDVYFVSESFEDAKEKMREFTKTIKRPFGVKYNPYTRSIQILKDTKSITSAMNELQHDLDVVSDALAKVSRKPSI
Put plainly: TPH1 in vitro inhibition assay (kinetic fluorescence). The class given is biochemical. Conditions: read-out: TPH1 Range (TPH1 inhibition IC50). Summed up: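 Final mix: 15 nM MBP-TPH1, 30 μM Trp, 36 μM 6-methyltetrahydropterin, 25 μM ferrous ammonium sulfate, 50 mM MES pH 7.1, 1% DMSO, room temperature.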

pIC50: −log10 of the molar value.

As for `Cc1ccn(-c2cc(-c3ccncc3)ccc2[C@@H](Oc2cc(N3CCC4(CC3)CN[C@H](C(=O)O)C4)nc(N)n2)C(F)(F)F)n1` [Example 1g, (S)-8-(2-amino-6-((R)-2,2,2-trifluoro-1-(2-(3-methyl-1H-pyrazol-1-yl)-4-(pyridin-4-yl)phenyl)ethoxy)pyrimidin-4-yl)-2,8-diazaspiro[4.5]decane-3-carboxylic acid], the “Efficacy (statistical significance of reduction of mucosal 5-HT concentrations relative to vehicle)” value in assay [1] is “*** (*** refers to P<0.005)”. Further, the pIC50 in assay [2] was > 7.30.

Regarding `CCCCc1ccc(-n2ccc(C)n2)c([C@@H](Oc2cc(N3CCC4(CC3)CN[C@H](C(=O)OCC)C4)nc(N)n2)C(F)(F)F)c1` [Example 63bq, (S)-ethyl 8-(2-amino-6-((R)-1-(5-butyl-2-(3-methyl-1H-pyrazol-1-yl)phenyl)-2,2,2-trifluoroethoxy)pyrimidin-4-yl)-2,8-diazaspiro[4.5]decane-3-carboxylate], the “Efficacy (statistical significance of reduction of mucosal 5-HT concentrations relative to vehicle)” value in assay [1] is listed as “**** (and refers to P<0.0005)”.

Regarding `CCOC(=O)[C@@H]1CC2(CCN(c3cc(O[C@H](c4ccc(-c5ccc6c(c5)CCNC6=O)cc4)C(F)(F)F)nc(N)n3)CC2)CN1` [Example 63bx, (S)-ethyl 8-(2-amino-6-((R)-2,2,2-trifluoro-1-(4-(1-oxo-1,2,3,4-tetrahydroisoquinolin-6-yl)phenyl)ethoxy)pyrimidin-4-yl)-2,8-diazaspiro[4.5]decane-3-carboxylate], the “Efficacy (statistical significance of reduction of mucosal 5-HT concentrations relative to vehicle)” value in assay [1] is “*** (*** refers to P<0.005)”.

Regarding `CCOC(=O)[C@@H]1CC2(CCN(c3cc(O[C@H](c4ccc(-c5ccc6cnccc6c5)cc4)C(F)(F)F)nc(N)n3)CC2)CN1` [Example 63by, (S)-ethyl 8-(2-amino-6-((R)-2,2,2-trifluoro-1-(4-(isoquinolin-6-yl)phenyl)ethoxy)pyrimidin-4-yl)-2,8-diazaspiro[4.5]decane-3-carboxylate], in assay [1], the “Efficacy (statistical significance of reduction of mucosal 5-HT concentrations relative to vehicle)” value was “*** (*** refers to P<0.005)”.

For the compound `CCOC(=O)CCc1ccc([C@@H](Oc2cc(N3CCC4(CC3)CN[C@H](C(=O)OCC)C4)nc(N)n2)C(F)(F)F)c(-n2ccc(C)n2)c1` [Example 63bz, (S)-ethyl 8-(2-amino-6-((R)-1-(4-(3-ethoxy-3-oxopropyl)-2-(3-methyl-1H-pyrazol-1-yl)phenyl)-2,2,2-trifluoroethoxy)pyrimidin-4-yl)-2,8-diazaspiro[4.5]decane-3-carboxylate], in assay [1], the “Efficacy (statistical significance of reduction of mucosal 5-HT concentrations relative to vehicle)” value is given as “** (** refers to P<0.01)”.

In the case of `CCOC(=O)[C@@H]1CC2(CCN(c3cc(O[C@H](c4ccc(-c5ccc(CNC(C)=O)cc5)cc4-n4ccc(C)n4)C(F)(F)F)nc(N)n3)CC2)CN1` [Example 63cp, (S)-ethyl 8-(6-((R)-1-(4′-(acetamidomethyl)-3-(3-methyl-1H-pyrazol-1-yl)-[1,1′-biphenyl]-4-yl)-2,2,2-trifluoroethoxy)-2-aminopyrimidin-4-yl)-2,8-diazaspiro[4.5]decane-3-carboxylate], the “Efficacy (statistical significance of reduction of mucosal 5-HT concentrations relative to vehicle)” value in assay [1] is “*** (*** refers to P<0.005)”.

Regarding `CCOC(=O)c1ccccc1-c1ccc(-n2ccc(C)n2)c([C@@H](Oc2cc(N3CCC4(CC3)CN[C@H](C(=O)OCC)C4)nc(N)n2)C(F)(F)F)c1` [Example 63da, (S)-ethyl 8-(2-amino-6-((R)-1-(2′-(ethoxycarbonyl)-4-(3-methyl-1H-pyrazol-1-yl)-[1,1′-biphenyl]-3-yl)-2,2,2-trifluoroethoxy)pyrimidin-4-yl)-2,8-diazaspiro[4.5]decane-3-carboxylate], the “Efficacy (statistical significance of reduction of mucosal 5-HT concentrations relative to vehicle)” value in assay [1] was “*** (*** refers to P<0.005)”.

Take `CCOC(=O)CCc1ccc(-c2ccc(-n3ccc(C)n3)c([C@@H](Oc3cc(N4CCC5(CC4)CN[C@H](C(=O)OCC)C5)nc(N)n3)C(F)(F)F)c2)cc1` [Example 63di, (S)-ethyl 8-(2-amino-6-((R)-1-(4′-(3-ethoxy-3-oxopropyl)-4-(3-methyl-1H-pyrazol-1-yl)-[1,1′-biphenyl]-3-yl)-2,2,2-trifluoroethoxy)pyrimidin-4-yl)-2,8-diazaspiro[4.5]decane-3-carboxylate]: in assay [1], the “Efficacy (statistical significance of reduction of mucosal 5-HT concentrations relative to vehicle)” value was “*** (*** refers to P<0.005)”.

As for `CCOC(=O)[C@@H]1CC2(CCN(c3cc(O[C@H](c4ccc(-c5ccc(OC)c(OC)c5)cc4)C(F)(F)F)nc(N)n3)CC2)CN1` [Example 63g, (S)-ethyl 8-(2-amino-6-((R)-1-(3′,4′-dimethoxy-[1,1′-biphenyl]-4-yl)-2,2,2-trifluoroethoxy)pyrimidin-4-yl)-2,8-diazaspiro[4.5]decane-3-carboxylate], in assay [1], the “Efficacy (statistical significance of reduction of mucosal 5-HT concentrations relative to vehicle)” value is “*** (*** refers to P<0.005)”.

For the compound `CCCCCOC(=O)[C@@H]1CC2(CCN(c3cc(O[C@H](c4ccc(Cl)cc4-n4ccc(C)n4)C(F)(F)F)nc(N)n3)CC2)CN1` [Example 64c, (S)-pentyl 8-(2-amino-6-((R)-1-(4-chloro-2-(3-methyl-1H-pyrazol-1-yl)phenyl)-2,2,2-trifluoroethoxy)pyrimidin-4-yl)-2,8-diazaspiro[4.5]decane-3-carboxylate], the “Efficacy (statistical significance of reduction of mucosal 5-HT concentrations relative to vehicle)” value in assay [1] is “**** (and refers to P<0.0005)”.

Take `CCCOC(=O)[C@@H]1CC2(CCN(c3cc(O[C@H](c4ccc(Cl)cc4-n4ccc(C)n4)C(F)(F)F)nc(N)n3)CC2)CN1` [Example 64e, (S)-propyl 8-(2-amino-6-((R)-1-(4-chloro-2-(3-methyl-1H-pyrazol-1-yl)phenyl)-2,2,2-trifluoroethoxy)pyrimidin-4-yl)-2,8-diazaspiro[4.5]decane-3-carboxylate]: in assay [1], the “Efficacy (statistical significance of reduction of mucosal 5-HT concentrations relative to vehicle)” value is reported as “**** (and refers to P<0.0005)”.

On to `Cc1ccn(-c2cc(Cl)ccc2[C@@H](Oc2cc(N3CCC4(CC3)CN[C@H](C(=O)OCC(C)(C)C)C4)nc(N)n2)C(F)(F)F)n1` [Example 64f, (S)-neopentyl 8-(2-amino-6-((R)-1-(4-chloro-2-(3-methyl-1H-pyrazol-1-yl)phenyl)-2,2,2-trifluoroethoxy)pyrimidin-4-yl)-2,8-diazaspiro[4.5]decane-3-carboxylate], for which, in assay [1], the “Efficacy (statistical significance of reduction of mucosal 5-HT concentrations relative to vehicle)” value is on record as “**** (and refers to P<0.0005)”.

Regarding `CCCCOC(=O)[C@@H]1CC2(CCN(c3cc(O[C@H](c4ccc(Cl)cc4-n4ccc(C)n4)C(F)(F)F)nc(N)n3)CC2)CN1` [Example 64g, (S)-butyl 8-(2-amino-6-((R)-1-(4-chloro-2-(3-methyl-1H-pyrazol-1-yl)phenyl)-2,2,2-trifluoroethoxy)pyrimidin-4-yl)-2,8-diazaspiro[4.5]decane-3-carboxylate], the “Efficacy (statistical significance of reduction of mucosal 5-HT concentrations relative to vehicle)” value in assay [1] is “* (* refers to P<0.05)”.

On to `Cc1ccn(-c2cc(Cl)ccc2[C@@H](Oc2cc(N3CCC4(CC3)CN[C@H](C(=O)OC(C)(C)C)C4)nc(N)n2)C(F)(F)F)n1` [Example 65a, (S)-Tert-butyl 8-(2-amino-6-((R)-1-(4-chloro-2-(3-methyl-1H-pyrazol-1-yl)phenyl)-2,2,2-trifluoroethoxy)pyrimidin-4-yl)-2,8-diazaspiro[4.5]decane-3-carboxylate], for which the “Efficacy (statistical significance of reduction of mucosal 5-HT concentrations relative to vehicle)” value in assay [1] was “**** (and refers to P<0.0005)”.

As for `Cc1ccn(-c2cc(Cl)ccc2[C@@H](Oc2cc(N3CCC4(CC3)CN[C@H](C(=O)OCCOC(=O)[C@H](N)C(C)C)C4)nc(N)n2)C(F)(F)F)n1` [Example 66c, (S)-2-(((R)-2-amino-3-methylbutanoyl)oxy)ethyl 8-(2-amino-6-((R)-1-(4-chloro-2-(3-methyl-1H-pyrazol-1-yl)phenyl)-2,2,2-trifluoroethoxy)pyrimidin-4-yl)-2,8-diazaspiro[4.5]decane-3-carboxylate], the “Efficacy (statistical significance of reduction of mucosal 5-HT concentrations relative to vehicle)” value in assay [1] is given as “**** (and refers to P<0.0005)”.

For “(S)-2-(pivaloyloxy)ethyl 8-(2-amino-6- ((R)-1-(4-chloro-2-(3-methyl-1H-pyrazol- 1-yl)phenyl)-2,2,2- trifluoroethoxy)pyrimidin-4-yl)-2,8- diazaspiro[4.5]decane-3-carboxylate [Example 66d]”, the “Efficacy (statistical significance of reduction of mucosal 5-HT concentrations relative to vehicle)” value in assay [1] is “**** (and refers to P<0.0005)”.

In the case of “(S)-isopropyl 8-(2-amino-6-((R)-1-(4-chloro-2-(3-methyl- 1H-pyrazol-1-yl)phenyl)-2,2,2-trifluoroethoxy)pyrimidin- 4-yl)-2,8-diazaspiro[4.5]decane-3-carboxylate [Example 64h]”, the “Efficacy (statistical significance of reduction of mucosal 5-HT concentrations relative to vehicle)” value in assay [1] was “** (** refers to P<0.01)”.
